From patent publication US11931335B2, “Enhancing autophagy or increasing longevity by administration of urolithins or precursors thereof” (Amazentis SA, priority 2012, dated 2024)

Tested on: C. elegans wild type (N2, Bristol)
Test: Mobility tracking of C. elegans during aging
Format: in vivo
Settings: days 1, 3, 5 and 8 of adulthood; 50 μM; FIG. 12
Experimental: To examine the effect of urolithins on muscle activity during aging, C. elegans mobility was examined over time. Synchronized populations of wild-type nematodes were prepared by standard methods and cultivated at 20° C. on NGM agar containing E. Coli (OP50) with or without test compounds (ellagic acid (EA), urolithins A (UA), and B (UB)). At Day 0, five plates were prepared, each containing 10 young adult worms. Worms were assayed for mobility at different ages, day 1, 3, 5 and 8 of adulthood. The wild type (N2, Bristol) worm strain was employed for these studies.
For C. elegans movement tracking, 45 seconds of video were recorded using a Nikon DS-L2/DS-Fi1 camera and controller setup, attached to both a computer and a standard bright field microscope, tracking an entire plate of 10 worms, with 5 plates per condition. The movement of worms during this time was calculated using an adapted version of the freely-available software Parallel Worm Tracker for MATLAB. The total movement over the 45 second tracking was averaged across all worms for each condition. This experiment was repeated twice with between 40 and 70 worms per condition.

In the case of `O=c1oc2cc(O)ccc2c2ccc(O)cc12` [Urolithin A, urolithin A], the “age related mobility decline” value is reported as “marked ability to reduce muscle function decline”.
